From patent US7420001B2 (Wyeth, priority 2003, dated 2008) come the findings set out here.

The target in assay [1] is T1, MMP-13 (Homo sapiens, UniProt P45452).
T1 construct: made in house
Nature of the assay: In-vitro fluorescence assay of MMP-13 activity. It counts as biochemical. To be noted: recombinant human catalytic domain of MMP-13; read-out: MMP-13 IC50.

The target of assay [2] is T2, MMP-2 (Homo sapiens, UniProt P08253).
T2 construct: purchased Oncogene Research Products (Calbiochem) PF023
T2 sequence (P08253 110-660): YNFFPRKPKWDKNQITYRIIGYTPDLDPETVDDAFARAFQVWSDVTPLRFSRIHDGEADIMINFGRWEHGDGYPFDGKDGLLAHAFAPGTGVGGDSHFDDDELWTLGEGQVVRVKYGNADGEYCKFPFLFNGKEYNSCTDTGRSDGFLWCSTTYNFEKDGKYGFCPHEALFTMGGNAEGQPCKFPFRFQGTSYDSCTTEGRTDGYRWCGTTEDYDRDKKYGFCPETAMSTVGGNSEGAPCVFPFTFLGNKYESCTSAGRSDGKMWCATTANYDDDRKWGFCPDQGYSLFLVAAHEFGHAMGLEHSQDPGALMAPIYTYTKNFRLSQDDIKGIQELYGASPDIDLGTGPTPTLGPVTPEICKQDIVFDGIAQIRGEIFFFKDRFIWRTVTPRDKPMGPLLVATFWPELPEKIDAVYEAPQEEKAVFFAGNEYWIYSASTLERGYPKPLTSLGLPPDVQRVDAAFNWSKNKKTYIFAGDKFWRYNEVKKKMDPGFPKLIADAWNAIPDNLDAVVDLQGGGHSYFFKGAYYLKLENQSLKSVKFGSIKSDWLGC
The assay is described as follows: In-vitro fluorescence assay of MMP-2 activity. Particulars: recombinant human MMP-2; read-out: MMP-2 IC50. The format is biochemical.

For the molecule `CC(=O)N(C)c1cccc2oc(C(=O)Nc3ccc(-c4ccc(S(=O)(=O)N[C@H](C(=O)O)C(C)C)cc4)cc3)c(C)c12` [Example 55, L-2-(4′-{[4-(Acetyl-methyl-amino)-3-methyl-benzofuran-2-carbonyl]-amino}-biphenyl-4-sulfonylamino)-3-methyl-butyric acid], the 50% inhibitory concentration (IC50) in assay [1] was determined as 20 nM; in assay [2], 2380 nM.
In the same order, the values of `Cc1c(C(=O)Nc2ccc(-c3ccc(S(=O)(=O)N[C@H](C(=O)O)C(C)C)cc3)cc2)oc2cccc(-c3nn[nH]n3)c12` [Example 56, L-3-Methyl-2-(4′-{[3-methyl-4-(2H-tetrazol-5-yl)-benzofuran-2-carbonyl]-amino}-biphenyl-4-sulfonylamino)-butyric acid] are 13 nM and 13300 nM.
Taken in the same sequence, the figures for `Cc1c(C(=O)Nc2ccc(-c3ccc(S(=O)(=O)N[C@H](C(=O)O)C(C)C)cc3)cc2)oc2cccc(CCC(C)(C)C)c12` [Example 57, L-2-(4′-{[^4-(3,^3-Dimethyl-butyl)-3-methyl-benzofuran-2-carbonyl]-amino}-biphenyl-4-sulfonylamino)-3-methyl-butyric acid] were 93 nM and 7000 nM.
As for `CCc1c(C(=O)Nc2ccc(-c3ccc(S(=O)(=O)N[C@H](C(=O)O)C(C)C)cc3)cc2)oc2ccccc12` [Example 58, L-2-{4′-[(3-Ethyl-benzofuran-2-carbonyl)-amino]-biphenyl-4-sulfonylamino}-3-methyl-butyric acid], the IC50 amounted to 56 nM in assay [1] and 1770 nM in assay [2].
In the same order, the values of `Cc1c(C(=O)Nc2ccc(-c3ccc(S(=O)(=O)N[C@H](C(=O)O)C(C)C)cc3)cc2)oc2cccc(NC(=O)OC(C)(C)C)c12` [Example 59, L-2-{4′-[(4-tert-Butoxycarbonylamino-3-methyl-benzofuran-2-carbonyl)-amino]-biphenyl-4-sulfonylamino}-3-methyl-butyric acid] are 32 nM and 3270 nM.
In the same order, the values of `CNc1cccc2oc(C(=O)Nc3ccc(-c4ccc(S(=O)(=O)N[C@H](C(=O)O)C(C)C)cc4)cc3)c(C)c12` [Example 60, L-3-Methyl-2-{4′-[(3-methyl-4-methylamino-benzofuran-2-carbonyl)-amino]-biphenyl-4-sulfonylamino}-butyric acid] are 8 nM and 886 nM.
Take `Cc1c(C(=O)Nc2ccc(-c3ccc(S(=O)(=O)N[C@H](C(=O)O)C(C)C)cc3)cc2)oc2cccc(N)c12` [Example 61, L-2-{4′-[(4-Amino-3-methyl-benzofuran-2-carbonyl)-amino]-biphenyl-4-sulfonylamino}-3-methyl-butyric acid]: the IC50 in assay [1] was 4.3 nM; in assay [2] it was 323 nM.
Take `Cc1c(C(=O)Nc2ccc(-c3ccc(S(=O)(=O)N[C@H](C(=O)O)C(C)C)cc3)cc2)oc2cccc(N(C)C)c12` [Example 62, L-2-{4′-[(4-Dimethylamino-3-methyl-benzofuran-2-carbonyl)-amino]-biphenyl-4-sulfonylamino}-3-methyl-butyric acid]: the IC50 in assay [1] came out at 6.5 nM; in assay [2], 5110 nM.
Taken in the same sequence, the figures for `Cc1c(C(=O)Nc2ccc(-c3ccc(S(=O)(=O)N[C@H](C(=O)O)C(C)C)cc3)cc2)oc2cccc(N3CCCC3)c12` [Example 63, L-3-Methyl-2-{4′-[(3-methyl-4-pyrrolidin-1-yl-benzofuran-2-carbonyl)-amino]-biphenyl-4-sulfonylamino}-butyric acid] were 28 nM and 5000 nM.
Taken in the same sequence, the figures for `Cc1c(C(=O)Nc2ccc(-c3ccc(S(=O)(=O)N(C)[C@H](C(=O)O)C(C)C)cc3)cc2)oc2cccc(NS(C)(=O)=O)c12` [Example 64, L-2-({4′-[(4-Methanesulfonylamino-3-methyl-benzofuran-2-carbonyl)-amino]-biphenyl-4-sulfonyl}-methyl-amino)-3-methyl-butyric acid] were 63 nM and 6940 nM.
In the same order, the values of `Cc1c(C(=O)Nc2ccc(-c3ccc(S(=O)(=O)N[C@H](C(=O)O)C(C)O)cc3)cc2)oc2cccc(NS(C)(=O)=O)c12` (stereo partly drawn) [Example 65, L-3-Hydroxy-2-{4′-[(4-methanesulfonylamino-3-methyl-benzofuran-2-carbonyl)-amino]-biphenyl-4-sulfonylamino}-butyric acid] are 10.9 nM and 2470 nM.
In the case of `Cc1c(C(=O)Nc2ccc(-c3ccc(S(=O)(=O)N[C@H](C(=O)O)C(C)C)cc3)cc2)oc2cccc(NC(=O)C(F)(F)F)c12` [Example 67, L-3-Methyl-2-(4′-{[3-methyl-4-(2,2,2-trifluoro-acetylamino)-benzofuran-2-carbonyl]-amino}-biphenyl-4-sulfonylamino)-butyric acid], the values for the IC50 in assay [1] and in assay [2] were 20 nM and 5750 nM, respectively.
With `CCS(=O)(=O)Nc1cccc2oc(C(=O)Nc3ccc(-c4ccc(S(=O)(=O)N[C@H](C(=O)O)C(C)C)cc4)cc3)c(C)c12` [Example 68, L-2-{4′-[(4-Ethanesulfonylamino-3-methyl-benzofuran-2-carbonyl)-amino]-biphenyl-4-sulfonylamino}-3-methyl-butyric acid], the IC50 is 12 nM in assay [1] and 1650 nM in assay [2].
In the same order, the values of `Cc1c(C(=O)Nc2ccc(-c3ccc(S(=O)(=O)N[C@H](C(=O)O)C(C)C)cc3)cc2)oc2cccc(NS(=O)(=O)C(C)C)c12` [Example 69, L-3-Methyl-2-(4′-{[3-methyl-4-(propane-2-sulfonylamino)-benzofuran-2-carbonyl]-amino}-biphenyl-4-sulfonylamino)-butyric acid] are 16 nM and 2340 nM.
Taken in the same sequence, the figures for `CCS(=O)(=O)N(C)c1cccc2oc(C(=O)Nc3ccc(-c4ccc(S(=O)(=O)N[C@H](C(=O)O)C(C)C)cc4)cc3)c(C)c12` [Example 70, L-2-(4′-{[4-(Ethanesulfonyl-methyl-amino)-3-methyl-benzofuran-2-carbonyl]-amino}-biphenyl-4-sulfonylamino)-3-methyl-butyric acid] were 14 nM and 3470 nM.
Taken in the same sequence, the figures for `Cc1c(C(=O)Nc2ccc(-c3ccc(S(=O)(=O)N[C@H](C(=O)O)C(C)C)cc3)cc2)oc2cccc(NS(=O)(=O)c3ccccc3)c12` [Example 71, L-2-{4′-[(4-Benzenesulfonylamino-3-methyl-benzofuran-2-carbonyl)-amino]-biphenyl-4-sulfonylamino}-3-methyl-butyric acid] were 8.1 nM and 6020 nM.
For `Cc1c(C(=O)Nc2ccc(-c3ccc(S(=O)(=O)N[C@H](C(=O)O)C(C)C)cc3)cc2)oc2cccc(NS(=O)(=O)c3cccs3)c12` [Example 72, L-3-Methyl-2-(4′-{[3-methyl-4-(thiophene-2-sulfonylamino)-benzofuran-2-carbonyl]-amino}-biphenyl-4-sulfonylamino)-butyric acid], the figures for the half-inhibitory concentration (IC50) in assay [1] and in assay [2] were 8.5 nM and 3980 nM, respectively.
In the same order, the values of `Cc1c(C(=O)Nc2ccc(-c3ccc(S(=O)(=O)N[C@H](C(=O)O)C(C)C)cc3)cc2)oc2cccc(N3CCCS3(=O)=O)c12` [Example 73, L-2-(4′-{[4-(1,1-Dioxo-1λ^6-isothiazolidin-2-yl)-3-methyl-benzofuran-2-carbonyl]-amino}-biphenyl-4-sulfonylamino)-3-methyl-butyric acid] are 11.9 nM and 4770 nM.
In the same order, the values of `CC(C)[C@H](NS(=O)(=O)c1ccc(-c2ccc(NC(=O)c3cc4cc(Br)ccc4o3)cc2)cc1)C(=O)O` [Example 84, N-[(4′-{[(5-Bromo-1-benzofuran-2-yl)carbonyl]amino}-1,1′-biphenyl-4-yl)sulfonyl]-L-valine] are 0.6 nM and 0.9 nM.
Taken in the same sequence, the figures for `CCc1ccc2oc(C(=O)Nc3ccc(-c4ccc(S(=O)(=O)N[C@H](C(=O)O)C(C)C)cc4)cc3)c(C)c2c1OC` [Example 86, N-[(4′-{[(5-Ethyl-4-methoxy-3-methyl-1-benzofuran-2-yl)carbonyl]amino}-1,1′-biphenyl-4-yl)sulfonyl]-L-valine] were 3.8 nM and 2500 nM.
With `CCc1cccc2oc(C(=O)Nc3ccc(-c4ccc(S(=O)(=O)N[C@H](C(=O)O)C(C)C)cc4)cc3)c(C)c12` [Example 87, N-[(4′-{[(4-Ethyl-3-methyl-1-benzofuran-2-yl)carbonyl]amino}-1,1′-biphenyl-4-yl)sulfonyl]-L-valine], the half-maximal inhibitory concentration (IC50) in assay [1] turned out to be 2.3 nM; in assay [2], 1410 nM.
Regarding `CCc1ccc2oc(C(=O)Nc3ccc(-c4ccc(S(=O)(=O)N[C@H](C(=O)O)C(C)C)cc4)cc3)c(C)c2c1OC(C)C` [Example 88, N-[(4′-{[(5-Ethyl-4-isopropoxy-3-methyl-1-benzofuran-2-yl)carbonyl]amino}-1,1′-biphenyl-4-yl)sulfonyl]-L-valine], the concentration for half-maximal inhibition (IC50) in assay [1] was found to be 27 nM; in assay [2] it was 7000 nM.
In the same order, the values of `CCc1ccc2oc(C(=O)Nc3ccc(-c4ccc(S(=O)(=O)N[C@H](C(=O)O)C(C)C)cc4)cc3)c(C)c2c1OCc1ccccc1` [Example 89, N-{[4′-({[4-(Benzyloxy)-5-ethyl-3-methyl-1-benzofuran-2-yl]carbonyl}amino)-1,1′-biphenyl-4-yl]sulfonyl}-L-valine] are 67 nM and 4340 nM.

In general, IC50 refers to the point on the concentration scale where inhibition reaches its midpoint.
